One molecule from publication PMC8175490, “Validation of mathematical model with phosphate activation effect by batch (R)-phenylacetylcarbinol biotransformation process utilizing Candida tropicalis pyruvate decarboxylase in phosphate buffer” (Scientific Reports, 2021) can be followed below.

This test deals with T1, partially purified C. tropicalis TISTR 5350 pyruvate decarboxylase (PDC) (Candida tropicalis, UniProt C5MDS4).
T1 construct: gene CTRG_03826
As to the kind of experiment: global fit of six-ODE model to batch PAC biotransformation progress curves (HPLC, enzymatic pyruvate assay). The test is classed as biochemical. As to conditions: carboligation with benzaldehyde (30/36 and 100/120 mM benzaldehyde/pyruvate); 250 mM phosphate pH 7.0, 4 °C, 1 mM TPP, 1 mM MgSO4; partially purified enzyme; model-fitted affinity constant; sigmoidal. The text has this: global fit of six-ODE model to batch PAC biotransformation progress curves (HPLC, enzymatic pyruvate assay) on partially purified C. tropicalis TISTR 5350 pyruvate decarboxylase (PDC)

T1 sequence (C5MDS4 entry or part of it): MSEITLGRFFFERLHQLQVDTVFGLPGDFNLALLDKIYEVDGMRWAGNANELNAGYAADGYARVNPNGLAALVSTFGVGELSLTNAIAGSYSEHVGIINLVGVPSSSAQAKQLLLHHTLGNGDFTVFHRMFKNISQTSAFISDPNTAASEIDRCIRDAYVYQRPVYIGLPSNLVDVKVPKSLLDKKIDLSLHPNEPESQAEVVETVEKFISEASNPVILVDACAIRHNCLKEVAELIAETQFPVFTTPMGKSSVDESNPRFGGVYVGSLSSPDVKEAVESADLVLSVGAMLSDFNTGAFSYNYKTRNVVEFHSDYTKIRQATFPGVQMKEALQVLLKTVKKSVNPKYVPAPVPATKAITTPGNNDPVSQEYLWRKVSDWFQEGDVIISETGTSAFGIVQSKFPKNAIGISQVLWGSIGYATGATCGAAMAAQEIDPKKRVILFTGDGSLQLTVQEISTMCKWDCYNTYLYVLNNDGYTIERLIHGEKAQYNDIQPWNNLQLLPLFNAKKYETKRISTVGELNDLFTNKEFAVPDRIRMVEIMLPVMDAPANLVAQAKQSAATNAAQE

For `O=Cc1ccccc1` [B, benzaldehyde], the Optimized values entry was “(1.01 ± 0.02) × 10^–4 mM^1−h”.
